Reference: US12264173B2 (GILEAD SCIENCES, INC., priority 2020, dated 2025)
Like-named read-outs stand apart in the source and are kept apart here.

Columns and labels:
Type in all cases: cell-based
HRV16 = HRV16 HeLa EC50 (cytopathic effect in H1-HeLa cells)
Method: H1-HeLa cells, cultured in complete DMEM medium containing 10% heat-inactivated FBS and 1% Penicillin/Streptomycin, were seeded in 96 well plates at 3000 cells/well one day prior to compound dosing and infection. The antiviral activity of each compound was measured in triplicate. Compounds were added directly to the cell cultures in serial 3-fold dilutions using the HP300 digital dispenser (Hewlett Packard, Palo Alto, CA) immediately prior to infection. The plates were transferred to BSL-2 containment and the appropriate dilution of virus stock, previously determined by titration and prepared in cell culture media, was added to test plates containing cells and serially diluted compounds. Each plate included 6 wells of infected untreated cells and 6 wells of uninfected cells that served as 0% and 100% virus inhibition control, respectively. Following the infection, test plates were incubated for 96 h in a tissue culture incubator set to 33° C./5% CO2. Following incubation, the H1-HeLa cells were removed from incubation and allowed to equilibrate to 25° C. Cell viability was determined by removing 100 μL of culture medium and adding 100 μL of Cell-Titer Glo viability reagent. The mixtures were incubated on a shaker for 10 minutes at 25° C., and the luminescence signal was quantified on an Envision luminescence plate reader.

RSV A2 = experiment: RSV NHBE EC50 (RSV A2 antiviral assay in NHBE cells); conditions: read-out: RSV NHBE EC50
Method: Normal human bronchial epithelial (NHBE) cells were purchased from Lonza (Walkersville, MD, Cat #CC-2540) and cultured in Bronchial Epithelial Growth Media (BEGM) (Lonza, Walkersville, MD, Cat #CC-3170). The cells were passaged 1-2 times per week to maintain <80% confluency. The NHBE cells were discarded after 6 passages in culture.
To conduct the RSV A2 antiviral assay, NHBE cells were plated in 96-well plates at a density of 7,500 cells per well in BEGM and allowed to attach overnight at 37° C. Following attachment, 100 μL of cell culture media was removed and 3-fold serially diluted compound was added using a Hewlett-Packard D300 Digital Dispenser. The final concentration of DMSO was normalized to 0.05%. Following compound addition, the NHBE cells were infected by the addition of 100 μL of RSV A2 at a titer of 1×10^4.5 tissue culture infectious doses/mL in BEGM and then incubated at 37° C. for 4 days. The NHBE cells were then allowed to equilibrate to 25° C. and cell viability was determined by removing 100 μL of culture medium and adding 100 μL of Cell-Titer Glo viability reagent. The mixtures were incubated for 10 minutes at 25° C., and the luminescence signal was quantified on an Envision luminescence plate reader.

RSV strain A2 = experiment: microbe, parasite or virus in culture; conditions: read-out: RSV HEp-2 EC50
Method: Antiviral activity against RSV is determined using an infectious cytopathic cell protection assay in HEp-2 cells. In this assay, compounds inhibiting viral infection and/or replication produce a cytoprotective effect against the virus-induced cell killing that can be quantified using a cell viability reagent. The techniques used here are novel adaptations of methods described in published literature (Chapman et al., Antimicrob Agents Chemother. 2007, 51(9):3346-53.).
HEp-2 cells are obtained from ATCC (Manassas, VI) and maintained in MEM media supplemented with 10% fetal bovine serum and penicillin/streptomycin. Cells are passaged twice a week and kept at subconfluent stage. Commercial stock of RSV strain A2 (Advanced Biotechnologies, Columbia, MD) is titered before compound testing to determine the appropriate dilution of the virus stock that generates desirable cytopathic effect in HEp-2 cells.
For antiviral tests, HEp-2 cells are grown in large cell culture flasks to near confluency but not fully so. The compounds to be tested are prediluted in DMSO in 384-well compound dilution plates, either in an 8 or 40 sample per plate standardized dose response format. 3-fold serial dilution increments of each test compound are prepared in the plates and test samples are transferred via acoustic transfer apparatus (Echo, Labcyte) at 100 nL per well into cell culture assay 384-well plates. Each compound dilution is transferred in single or quadruplicate samples into dry assay plates, which are stored until assay is ready to go. The positive and negative controls are laid out in opposite on ends of the plate in vertical blocks (1 column).
Subsequently, an infectious mixture is prepared using an appropriate dilution of virus stock previously determined by titration with cells at a density of 50,000/mL and 20 µL/well is added to test plates w/compounds via automation (uFlow, Biotek). Each plate includes negative and positive controls (16 replicates each) to create 0% and 100% virus inhibition standards, respectively. Following the infection with RSV, testing plates are incubated for 4 days in a 37° C. cell culture incubator. After the incubation, a cell viability reagent, Cell TiterGlo (Promega, Madison, WI) is added to the assay plates, which are incubated briefly, and a luminescent readout is measured (Envision, Perkin Elmer) in all the assay plates. The RSV-induced cytopathic effect, percentage inhibition, is determined from the levels of remaining cell viability. […] Various potent anti-RSV tool compounds are used as positive controls for antiviral activity.

[1] = 96 h, Table 3, H1-HeLa cells, 96 h, read-out: HRV16 HeLa EC50
[2] = HeLa, Table 5 comparative activity, 2',3'-OH vs -OC(O)iPr, read-out: HRV16 HeLa EC50
[3] = human respiratory syncytial virus, NHBE, 96 h, Table 3, NHBE cells, RSV A2, 4 days
[4] = human respiratory syncytial virus, NHBE, Table 5 comparative activity, 2',3'-OH vs -OC(O)iPr
[5] = human respiratory syncytial virus, HEp-2, 96 h, Table 3, HEp-2 cells, RSV A2, 4 days
[6] = human respiratory syncytial virus, HEp-2, Table 5 comparative activity, 2',3'-OH vs -OC(O)iPr
[7] = Table 3, H1-HeLa cells, 96 h, read-out: HRV16 HeLa EC50
[8] = Table 3, NHBE cells, RSV A2, 4 days
[9] = Table 3, HEp-2 cells, RSV A2, 4 days

Structure (SMILES)	EC50 (HRV16; [1]) [µM]	EC50 (RSV A2; [3]) [µM]	EC50 (RSV strain A2; [5]) [µM]	also measured
CC(C)C(=O)O[C@H]1[C@H](c2ccc3c(N)ncnn23)O[C@](C#N)(COP(=O)(N[C@@H](C)C(=O)OC2CCN(C)CC2)Oc2ccccc2)[C@H]1OC(=O)C(C)C (stereo partly drawn) [Example 162, (2R,3S,4S,5S)-5-(4-aminopyrrolo[2,1-f][1,2,4]triazin-7-yl)-2-cyano-2-((((((S)-1-((1-methylpiperidin-4-yl)oxy)-1-oxopropan-2-yl)amino)(phenoxy)phosphoryl)oxy)methyl)tetrahydrofuran-3,4-diyl bis(2-methylpropanoate)]	1.62	0.028	0.179	EC50 (HRV16; [2]): 1.62 µM; EC50 (RSV A2; [4]): 0.028 µM; EC50 (RSV strain A2; [6]): 0.179 µM
CC(C)C(=O)O[C@H]1[C@H](c2ccc3c(N)ncnn23)O[C@](C#N)(COP(=O)(N[C@@H](C)C(=O)OCC2CC2)Oc2ccccc2)[C@H]1OC(=O)C(C)C (stereo partly drawn) [Example 238, (2R,3S,4S,5S)-5-(4-aminopyrrolo[2,1-f][1,2,4]triazin-7-yl)-2-cyano-2-((((((S)-1-(cyclopropylmethoxy)-1-oxopropan-2-yl)amino)(phenoxy)phosphoryl)oxy)methyl) tetrahydrofuran-3,4-diyl bis(2-methylpropanoate)]				EC50 (HRV16; [7]): 0.099 µM; EC50 (RSV A2; [8]): 0.028 µM; EC50 (RSV strain A2; [9]): 0.027 µM
COCCC(=O)O[C@H]1[C@H](c2ccc3c(N)ncnn23)O[C@](C#N)(CO[P@@](=O)(N[C@@H](C)C(=O)OC)Oc2ccccc2)[C@H]1OC(=O)CCOC [Example 231, (2R,3S,4S,5S)-5-(4-aminopyrrolo[2,1-f][1,2,4]triazin-7-yl)-2-cyano-2-((((S)-(((S)-1-methoxy-1-oxopropan-2-yl)amino)(phenoxy)phosphoryl)oxy)methyl) tetrahydrofuran-3,4-diyl bis(3-methoxypropanoate)]	1.73	0.075	0.124	
CC(C)C(=O)OC1C(c2ccc3c(N)ncnn23)OC(C#N)(COP(=O)(NC(C)C(=O)OC2CCN(C)C2)Oc2ccccc2)C1OC(=O)C(C)C (single isomer, unassigned) [Example 230]				EC50 (HRV16; [7]): 0.864 µM; EC50 (RSV A2; [8]): 0.047 µM; EC50 (RSV strain A2; [9]): 0.102 µM
CCC(CC)COC(=O)[C@H](C)NP(=O)(O)OC[C@@]1(C#N)O[C@@H](c2ccc3c(N)ncnn23)[C@H](OC(=O)C(C)C)[C@@H]1OC(=O)C(C)C [Example 239, ((2R,3S,4S,5S)-5-(4-aminopyrrolo[2,1-f][1,2,4]triazin-7-yl)-2-cyano-3,4-bis(isobutyryloxy)tetrahydrofuran-2-yl)methyl ((S)-1-(2-ethylbutoxy)-1-oxopropan-2-yl)phosphoramidate]	> 50	2.26	> 9.83	
C[C@H](NP(=O)(OC[C@@]1(C#N)O[C@@H](c2ccc3c(N)ncnn23)[C@H](O)[C@@H]1O)Oc1ccccc1)C(=O)OC1CCN(C)CC1 (some centres unmarked) [Example 19]				EC50 (HRV16; HeLa, read-out: HRV16 HeLa EC50, Table 5 comparative activity, 2',3'-OH vs -OC(O)iPr): ≥ 50 µM; EC50 (RSV A2; [4]): > 5 µM; EC50 (RSV strain A2; [6]): 4.19 µM
CC(C)C(=O)O[C@H]1[C@H](c2ccc3c(N)ncnn23)O[C@](C#N)(COP(=O)(N[C@@H](C)C(=O)OCCN(C(C)C)C(C)C)Oc2ccccc2)[C@H]1OC(=O)C(C)C (stereo partly drawn) [Example 224, (2R,3S,4S,5S)-5-(4-aminopyrrolo[2,1-f][1,2,4]triazin-7-yl)-2-cyano-2-((((((S)-1-(2-(diisopropylamino)ethoxy)-1-oxopropan-2-yl)amino)(phenoxy)phosphoryl)oxy)methyl)tetrahydrofuran-3,4-diyl bis(2-methylpropanoate)]	1.7	0.986	0.378	
CC(C)[C@H](N)C(=O)O[C@H]1[C@H](c2ccc3c(N)ncnn23)O[C@](C#N)(COP(=O)(N[C@@H](C)C(=O)OC2CCOCC2)Oc2ccccc2)[C@H]1OC(=O)[C@@H](N)C(C)C (stereo partly drawn) [Example 221, (2R,3S,4S,5S)-5-(4-aminopyrrolo[2,1-f][1,2,4]triazin-7-yl)-2-cyano-2-((((((S)-1-oxo-1-((tetrahydro-2H-pyran-4-yl)oxy)propan-2-yl)amino)(phenoxy)phosphoryl)oxy)methyl)tetrahydrofuran-3,4-diyl (2S,2'S)-bis(2-amino-3-methylbutanoate)]				EC50 (HRV16; [7]): 8.99 µM; EC50 (RSV A2; [8]): 1.17 µM; EC50 (RSV strain A2; [9]): 0.66 µM
COC(=O)[C@H](C)N[P@](=O)(OC[C@@]1(C#N)O[C@@H](c2ccc3c(NC(=O)C4CCN(C)CC4)ncnn23)[C@H](OC(=O)C2CCN(C)CC2)[C@@H]1OC(=O)C1CCN(C)CC1)Oc1ccccc1 [Example 220, (2R,3S,4S,5S)-2-cyano-2-((((S)-(((S)-1-methoxy-1-oxopropan-2-yl)amino)(phenoxy)phosphoryl)oxy)methyl)-5-(4-(1-methylpiperidine-4-carboxamido)pyrrolo[2,1-f][1,2,4]triazin-7-yl)tetrahydrofuran-3,4-diyl bis(1-methylpiperidine-4-carboxylate)]	13.5	4.86	0.167	
CC(C)C(=O)O[C@H]1[C@H](c2ccc3c(N)ncnn23)O[C@](C#N)(COP(=O)(N[C@@H](C)C(=O)O[C@H]2CCN(C)C2)Oc2ccccc2)[C@H]1OC(=O)C(C)C (stereo partly drawn) [Example 228, (2R,3S,4S,5S)-5-(4-aminopyrrolo[2,1-f][1,2,4]triazin-7-yl)-2-cyano-2-((((((S)-1-(((S)-1-methylpyrrolidin-3-yl)oxy)-1-oxopropan-2-yl)amino)(phenoxy)phosphoryl)oxy)methyl)tetrahydrofuran-3,4-diyl bis(2-methylpropanoate)]	0.956	0.059	0.084	EC50 (HRV16; [2]): 0.956 µM; EC50 (RSV A2; [4]): 0.059 µM; EC50 (RSV strain A2; [6]): 0.084 µM
CC(C)C(=O)O[C@H]1[C@H](c2ccc3c(N)ncnn23)O[C@](C#N)(COP(=O)(N[C@@H](C)C(=O)OCCN2CCOCC2)Oc2ccccc2)[C@H]1OC(=O)C(C)C (stereo partly drawn) [Example 223, (2R,3S,4S,5S)-5-(4-aminopyrrolo[2,1-f][1,2,4]triazin-7-yl)-2-cyano-2-((((((S)-1-(2-morpholinoethoxy)-1-oxopropan-2-yl)amino)(phenoxy)phosphoryl)oxy)methyl) tetrahydrofuran-3,4-diyl bis(2-methylpropanoate)]		0.223	1.72	
